Data set [1] addresses mTOR (Homo sapiens, UniProt P42345). As to the kind of experiment: mTOR activity (no method described). It is filed as biochemical.
Data set [2] has as its system Asexual parasites of P. falciparum strain 3D7. As to the kind of experiment: In vitro drug activity on asexual parasites (SYBR Green assay). The class given is cell-based, Plasmodium falciparum. In a few lines:
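3D7 parasites at 0.5% parasitemia and 2% hematocrit were exposed to drugs (DMSO ≤0.5%) for 72 h under standard culture conditions, in duplicate. After freeze-thaw lysis, SYBR Green I lysis buffer was added for 30 min at room temperature, and fluorescence was read at 490/520 nm.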

A short description of data set [3]: Solubility at pH 7.4. It is filed as physicochemical.
Data set [4] in a line: Microsomal stability (rat). It is filed as in vitro ADME. As to conditions: rat microsomes.
A short description of data set [5]: PAMPA permeability. It is filed as in vitro ADME. For orientation: In PAMPA a lipid-coated filter parts donor from acceptor wells.
Data set [6] concerns Stage III-V gametocytes (blood stage P. falciparum parasites). In words: In vitro drug activity on gametocytes (AlamarBlue viability assay). The class given is cell-based, Plasmodium falciparum. Particulars: read-out: Gametocyte EC50. In a few lines:
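P. falciparum 3D7 stage III–V gametocytes (also HB3, Dd2), enriched by 50 mM N-acetylglucosamine and Percoll gradient, seeded at 20,000/well with compound for 72 h at 37° C, 5% CO2. AlamarBlue then added for 24 h; viability read as fluorescence (Ex 525, Em 598 nm).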

In the case of `Cn1c(=O)n(-c2cccc(C#N)c2)c2c3cc(-c4cccc(C#N)c4)ccc3ncc21` [Compound 401], the mTOR in data set [1] turned out to be 1271 nM. The EC50 in data set [2] turned out to be 86.7 nM; in data set [6], 190 nM. Besides, in data set [3], the “Sol @ pH 7.4” value is recorded as under 1.0 ug/mL. In addition, the “Microsomal Stability (rat) T1/2” value in data set [4] is recorded as over 30.0 min. For the same compound, in data set [5], the PAMPA Permeability was 297 ×10⁻⁶ cm/s.

Regarding `Cn1c(=O)n(-c2cccc(C#N)c2)c2c3cc(-c4ccc(F)cc4)ccc3ncc21` [Compound 402], the mTOR in data set [1] is given as 53210 nM. In addition, the EC50 in data set [2] amounted to 140 nM; in data set [6] it was 343 nM. Besides, the “Sol @ pH 7.4” value in data set [3] amounted to 1.9 ug/mL. Moreover, in data set [4], the “Microsomal Stability (rat) T1/2” value was over 30.0 min. Also, the PAMPA Permeability in data set [5] stood at 223 ×10⁻⁶ cm/s.

With `N#Cc1cccc(-n2c(=O)n(CCO)c3cnc4ccc(-c5ccc(Cl)cc5)cc4c32)c1` [Compound 404], in data set [1], the mTOR worked out at 50000 nM. Further, the EC50 in data set [2] came to 681 nM; in data set [6] it was 1640 nM. Moreover, the “Sol @ pH 7.4” value in data set [3] stood at 0.9 ug/mL. Further, the “Microsomal Stability (rat) T1/2” value in data set [4] is on record as over 30.0 min. The compound also had a PAMPA Permeability in data set [5] of 19.5 ×10⁻⁶ cm/s.

Compound `CN(C)Cc1ccc(-c2ccc3ncc4c(c3c2)n(-c2cccc(C#N)c2)c(=O)n4C)cc1` [Compound 436] showed a mTOR in data set [1] of 12450 nM. Moreover, the EC50 in data set [2] stood at 892 nM; in data set [6] it was 1970 nM. Besides, in data set [3], the “Sol @ pH 7.4” value came to 52.9 ug/mL. For the same compound, the “Microsomal Stability (rat) T1/2” value in data set [4] is recorded as over 30.0 min. Moreover, the PAMPA Permeability in data set [5] is 767 ×10⁻⁶ cm/s.

In data set [1], `Cc1ccc(-c2ccc3ncc4c(c3c2)n(-c2cccc(C#N)c2)c(=O)n4C)cc1` [Compound 438] showed a mTOR of 100000 nM. Also, the EC50 was 174 nM in data set [2] and 169 nM in data set [6]. Further, the “Sol @ pH 7.4” value in data set [3] was under 1.0 ug/mL. Moreover, the “Microsomal Stability (rat) T1/2” value in data set [4] is 27.2 min. Besides, the PAMPA Permeability in data set [5] was under 1 ×10⁻⁶ cm/s.

As to `Cn1c(=O)n(-c2cccc(C#N)c2)c2c3cc(-c4ccc(N)cc4)ccc3ncc21` [Compound 439], the mTOR in data set [1] was 714.1 nM. Moreover, the EC50 in data set [2] was 37.9 nM; in data set [6], 844 nM. For the same compound, in data set [3], the “Sol @ pH 7.4” value came out at 1.4 ug/mL. In addition, the “Microsomal Stability (rat) T1/2” value in data set [4] is on record as over 30.0 min. In data set [5], this compound had a PAMPA Permeability of 18.4 ×10⁻⁶ cm/s.

Consider `Cn1c(=O)n(-c2cccc(C#N)c2)c2c3cc(-c4ccc(Cl)c(O)c4)ccc3ncc21` [Compound 441], for which the mTOR in data set [1] was 516.2 nM. Besides, the EC50 was 319 nM in data set [2] and 686 nM in data set [6]. Besides, in data set [3], the “Sol @ pH 7.4” value is under 1.0 ug/mL. Also, the “Microsomal Stability (rat) T1/2” value in data set [4] is over 30.0 min. In data set [5], the PAMPA Permeability was under 1 ×10⁻⁶ cm/s.

`CC(O)c1ccc(-c2ccc3ncc4c(c3c2)n(-c2cccc(C#N)c2)c(=O)n4C)cc1` (stereo not drawn) [Compound 443] had a mTOR in data set [1] of 302.4 nM. The concentration giving a half-maximal response (EC50) was determined as 44.5 nM in data set [2] and 68.3 nM in data set [6]. Also, the “Sol @ pH 7.4” value in data set [3] is 3.3 ug/mL. The “Microsomal Stability (rat) T1/2” value in data set [4] is reported as over 30.0 min. This compound also gave a PAMPA Permeability in data set [5] of 645 ×10⁻⁶ cm/s.

The compound `Cn1c(=O)n(-c2cccc(C#N)c2)c2c3cc(-c4cccc(O)c4)ccc3ncc21` [Compound 444] displayed a mTOR in data set [1] of 427.8 nM. In addition, the EC50 in data set [2] was determined as 106 nM; in data set [6], 280 nM. In addition, in data set [3], the “Sol @ pH 7.4” value was under 1.0 ug/mL. Also, the “Microsomal Stability (rat) T1/2” value in data set [4] is reported as 12.8 min. Besides, the PAMPA Permeability in data set [5] was found to be 407 ×10⁻⁶ cm/s.

By EC50 is commonly meant the concentration giving half of the maximal effect.

Values taken from US11753408B2, “Compounds and method for blocking transmission of malarial parasite” (The United States of America, as represented by the …, priority 2016, dated 2023).
